Reference: PubChem BioAssay (NCI)
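1) Cells in 96-well plates. 2) Compound, 48 h, 5 concentrations. 3) Linear interpolation between surrounding doses. 4) Unreached endpoint = highest concentration. Abbreviation: GI50, concentration required for 50% inhibition of growth. TGI denotes the concentration required for complete inhibition of growth.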

Columns and labels:
Assay in all cases: inhibition of tumour cell growth, NCI panel, 48 h
[1] = system: NCI-H460 lung
[2] = system: MDA-MB-231 breast
[3] = system: HOP-62 NSCLC
[4] = system: SN12C renal
[5] = system: PC-3 prostate
[6] = system: TK-10 renal
[7] = system: M14 melanoma
[8] = system: SF-539 CNS
[9] = system: HL-60(TB) leukemia
[10] = system: MALME-3M melanoma

For `C#CC(F)(F)[C@]1(O)CC[C@H]2[C@@H]3CCC4=CC(=O)CCC4=C3[C@@H](c3ccc(C(C)=O)cc3)C[C@@]21C`, which GI50 [1] is on record?
The GI50 was 21.5 µM.

And the TGI [1]?
The TGI was > 68.2 µM.

What about the GI50 [2] of the same compound?
The GI50 was 15.7 µM.

What about the TGI [2] of the same compound?
Its TGI is > 87.5 µM.

What about the GI50 [3] of the same compound?
Its GI50 is 18.7 µM.

And the TGI [3]?
Its TGI is 73.8 µM.

What about the GI50 [4] of the same compound?
The GI50 was 25.1 µM.

And the TGI [4]?
The TGI was > 95.3 µM.

What about the GI50 [5] of the same compound?
Its GI50 is 10 µM.

And the TGI [5]?
Its TGI is 97.9 µM.

What about the GI50 [6] of the same compound?
Its GI50 is 24.9 µM.

What about the TGI [6] of the same compound?
Its TGI is 71.4 µM.

And the GI50 [7]?
The GI50 was 16.9 µM.

What about the TGI [7] of the same compound?
Its TGI is > 84.9 µM.

For `Oc1[nH]c2ccccc2c1N=Nc1nc(-c2ccc(Cl)c(Cl)c2)cs1`, which TGI [8] is on record?
The TGI was > 100 µM.

What about the TGI [1] of the same compound?
Its TGI is > 100 µM.

And the TGI [2]?
Its TGI is > 100 µM.

What about the TGI [3] of the same compound?
Its TGI is > 100 µM.

And the TGI [4]?
The TGI was > 100 µM.

What about the TGI [5] of the same compound?
The TGI was > 100 µM.

What about the TGI [6] of the same compound?
The TGI was > 100 µM.

What about the TGI [9] of the same compound?
The TGI was 0.718 µM.

And the TGI [7]?
Its TGI is > 100 µM.

What does the source list for `COC(OC)C1OC(CO)C(n2ccc(N)nc2=O)C1O` (centres undefined)?
TGI [8]: > 100 µM; TGI [1]: > 100 µM; TGI [2]: > 100 µM; TGI [3]: > 100 µM; TGI [10]: > 100 µM; TGI [4]: > 100 µM; TGI [5]: > 100 µM; TGI [6]: > 100 µM; TGI [7]: > 100 µM

For `O=c1c2cc(I)ccc2nc(Sc2ncccc2[N+](=O)[O-])n1Cc1ccccc1`, which TGI [8] is on record?
Its TGI is > 100 µM.

And the TGI [1]?
Its TGI is > 100 µM.

What about the TGI [2] of the same compound?
Its TGI is > 100 µM.

What about the TGI [3] of the same compound?
The TGI was > 100 µM.

And the TGI [4]?
Its TGI is > 100 µM.

What about the TGI [5] of the same compound?
The TGI was > 100 µM.

What about the TGI [6] of the same compound?
The TGI was > 100 µM.

And the TGI [9]?
Its TGI is 2.02 µM.

What about the TGI [7] of the same compound?
Its TGI is > 100 µM.

With `O=c1[nH]nc(-c2ccccc2)n1/N=C/c1c(O)ccc2ccccc12` as the compound, how does the TGI [8] read?
Its TGI is > 100 µM.

What about the TGI [2] of the same compound?
Its TGI is > 100 µM.

What about the TGI [3] of the same compound?
The TGI was > 100 µM.

What about the TGI [4] of the same compound?
The TGI was > 100 µM.

And the TGI [5]?
Its TGI is > 100 µM.

What about the TGI [6] of the same compound?
The TGI was > 100 µM.

And the TGI [7]?
The TGI was > 100 µM.

How did the TGI [1] turn out when `COC(=O)/C=C/c1cc(O)c2c(c1)[C@H](C(=O)OC)[C@@H](c1ccc(O)c(O)c1)O2` was run?
Its TGI is 24.5 µM.

And the GI50 [2]?
Its GI50 is 0.0497 µM.

And the TGI [2]?
The TGI was > 100 µM.

And the TGI [3]?
The TGI was > 58.7 µM.

And the TGI [4]?
Its TGI is > 74.1 µM.

What about the TGI [5] of the same compound?
Its TGI is > 100 µM.

And the TGI [6]?
Its TGI is > 100 µM.

And the GI50 [9]?
Its GI50 is 0.0293 µM.

And the TGI [9]?
Its TGI is 0.0801 µM.

And the TGI [7]?
Its TGI is > 45.2 µM.

How did the TGI [1] turn out when `CCc1ccc2[nH]c(O)c(-c3[nH]c4ccccc4c3N=O)c2c1` was run?
Its TGI is 21 µM.

And the TGI [2]?
Its TGI is 40.7 µM.

What about the TGI [3] of the same compound?
Its TGI is 27.2 µM.

And the TGI [10]?
Its TGI is 21.6 µM.

And the TGI [4]?
Its TGI is 18 µM.

And the TGI [5]?
The TGI was 19.8 µM.

What about the TGI [6] of the same compound?
The TGI was 23.7 µM.

What about the TGI [7] of the same compound?
The TGI was 25.3 µM.

With `O=C1/C(=C/c2ccccc2[N+](=O)[O-])N=C(c2ccccc2)N1C1Nc2cc3c(cc2S1)NC(N1C(=O)/C(=C/c2ccccc2[N+](=O)[O-])N=C1c1ccccc1)S3` (centres undefined) as the compound, how does the TGI [8] read?
Its TGI is > 100 µM.

And the TGI [1]?
The TGI was > 100 µM.

And the TGI [2]?
The TGI was > 100 µM.

What about the TGI [3] of the same compound?
The TGI was > 100 µM.

What about the TGI [5] of the same compound?
The TGI was > 100 µM.

What about the TGI [6] of the same compound?
The TGI was > 100 µM.

And the TGI [9]?
The TGI was 96.2 µM.

What about the TGI [7] of the same compound?
Its TGI is > 100 µM.

What does the source list for `CCOC(=O)CNC(=O)C(C)NC(=O)C(NC(=O)CC(c1ncc[nH]1)c1ncc[nH]1)C(C)CC` (centres undefined)?
TGI [8]: > 100 µM; TGI [1]: > 100 µM; TGI [2]: > 100 µM; TGI [10]: > 100 µM; TGI [4]: > 100 µM; TGI [6]: > 100 µM; TGI [9]: > 100 µM; TGI [7]: > 100 µM

Which TGI [1] does the source give for `C1CCC(OC2CSC2)OC1` (centres undefined) here?
The TGI was > 100 µM.

What about the TGI [2] of the same compound?
The TGI was > 100 µM.

And the TGI [4]?
The TGI was > 100 µM.

What about the TGI [5] of the same compound?
The TGI was > 100 µM.

And the TGI [6]?
Its TGI is > 100 µM.

And the TGI [7]?
The TGI was > 100 µM.

What does the source list for `O=C(CCCCCCCCC(=O)N1C(=O)CC(=O)N(c2cccc(Cl)c2)C1=S)N1C(=O)CC(=O)N(c2cccc(Cl)c2)C1=S`?
TGI [1]: > 100 µM; TGI [2]: 84.3 µM; TGI [3]: > 100 µM; TGI [10]: > 100 µM; TGI [4]: > 100 µM; TGI [5]: 91.2 µM; TGI [6]: > 100 µM; TGI [7]: > 100 µM

For `CCCCc1ccc(Nc2ncc3[nH]cnc3n2)cc1`, which TGI [8] is on record?
Its TGI is 56.5 µM.

What about the TGI [2] of the same compound?
Its TGI is 30.3 µM.

And the TGI [3]?
Its TGI is 37.2 µM.

What about the TGI [10] of the same compound?
The TGI was 40.6 µM.

And the TGI [4]?
The TGI was 48.9 µM.

What about the TGI [6] of the same compound?
Its TGI is 30.9 µM.

What about the TGI [9] of the same compound?
Its TGI is > 100 µM.

What about the TGI [7] of the same compound?
The TGI was 38.9 µM.

What does the source list for `CC(CO)C1C[C@H](O)[C@@]2(C)CC(=O)C=C(CO)[C@@H]2C1` (some centres undefined)?
TGI [8]: > 100 µM; TGI [1]: > 100 µM; TGI [2]: > 100 µM; TGI [3]: > 100 µM; TGI [4]: > 100 µM; TGI [6]: > 100 µM; TGI [9]: > 100 µM; TGI [7]: > 100 µM

With `Cc1ccc(C(C2C(=O)N(C)C(=O)N(C)C2=O)C(F)(F)C(=O)N(C)C)cc1` (centres undefined) as the compound, how does the TGI [8] read?
The TGI was > 100 µM.

And the TGI [1]?
The TGI was > 100 µM.

And the TGI [2]?
Its TGI is > 100 µM.

What about the TGI [3] of the same compound?
The TGI was > 100 µM.

And the TGI [10]?
The TGI was > 100 µM.

And the TGI [5]?
Its TGI is > 100 µM.

And the TGI [6]?
Its TGI is > 100 µM.

And the TGI [7]?
Its TGI is > 100 µM.

Which TGI [8] does the source give for `COC(=O)c1cc(C#N)[nH]c1-c1ccc(C)s1` here?
The TGI was > 100 µM.

And the TGI [1]?
The TGI was > 100 µM.

What about the TGI [2] of the same compound?
Its TGI is > 100 µM.

And the TGI [3]?
The TGI was > 100 µM.

And the TGI [4]?
Its TGI is > 100 µM.

And the TGI [5]?
The TGI was 46.4 µM.

And the TGI [7]?
The TGI was > 100 µM.

With `CC(=O)OC(OC(C)=O)n1cc(C=O)c2ccccc21` as the compound, how does the TGI [1] read?
Its TGI is > 100 µM.

What about the TGI [2] of the same compound?
Its TGI is > 100 µM.

What about the TGI [3] of the same compound?
Its TGI is > 100 µM.

What about the TGI [4] of the same compound?
The TGI was > 100 µM.

What about the TGI [5] of the same compound?
Its TGI is > 100 µM.

And the TGI [6]?
The TGI was > 100 µM.

What about the TGI [9] of the same compound?
Its TGI is > 100 µM.

And the TGI [7]?
The TGI was > 100 µM.

With `O=S1(=O)c2ccccc2C(=NO)c2ccccc21` as the compound, how does the TGI [8] read?
The TGI was > 100 µM.

And the TGI [1]?
Its TGI is > 100 µM.

What about the TGI [2] of the same compound?
The TGI was > 100 µM.

What about the TGI [3] of the same compound?
The TGI was > 100 µM.

And the TGI [4]?
Its TGI is > 100 µM.

And the TGI [5]?
The TGI was > 100 µM.

And the TGI [6]?
Its TGI is > 100 µM.

What about the TGI [9] of the same compound?
Its TGI is 36.2 µM.

And the TGI [7]?
Its TGI is > 100 µM.

`C=C(C)C(=O)[C@@]12C(=O)[C@@H](C)CC[C@H]1[C@H](C)C[C@@H]2C=C(C)C` was tested. Which TGI [8] did it give?
The TGI was 47.4 µM.

What about the TGI [2] of the same compound?
Its TGI is 51.3 µM.

And the TGI [3]?
The TGI was > 100 µM.

And the TGI [10]?
Its TGI is 40.6 µM.

What about the TGI [4] of the same compound?
The TGI was 40.7 µM.

And the TGI [5]?
Its TGI is 59.4 µM.

And the TGI [6]?
The TGI was > 100 µM.

What about the TGI [7] of the same compound?
Its TGI is > 100 µM.

Which TGI [1] does the source give for `Cc1cc(-c2nc3ccccc3s2)ccc1NC(=O)[C@H](C)N` here?
The TGI was 25.6 µM.

And the TGI [2]?
The TGI was 32.6 µM.

And the TGI [3]?
The TGI was 28.3 µM.

And the TGI [10]?
Its TGI is 51.1 µM.

And the TGI [4]?
Its TGI is 27.9 µM.

And the TGI [5]?
The TGI was 26.7 µM.

And the TGI [7]?
The TGI was 19.2 µM.
